Assay results as given in PMC6669827 (Toxins, 2019).
pIC50: −log10 of the molar value. Values joined by “and” are separate entries in the source; they are usually repeats but may differ in a detail not shown here. Equal entries are not always repeated. “Also recorded” adds a separate entry of the source.

How the values were obtained:
human α3β2 nAChR = type: cell-based
human α7 nAChR = molecular target: T1, human α7 nAChR (Homo sapiens, UniProt P36544); type: cell-based
T1 construct: expressed in transfected cells; host or cells: Xenopus laevis oocytes injected with cRNA (55.8 ng per oocyte); the cDNA clone was a gift of Dr. J. Michael McIntosh, University of Utah
T1 sequence (P36544 23-502): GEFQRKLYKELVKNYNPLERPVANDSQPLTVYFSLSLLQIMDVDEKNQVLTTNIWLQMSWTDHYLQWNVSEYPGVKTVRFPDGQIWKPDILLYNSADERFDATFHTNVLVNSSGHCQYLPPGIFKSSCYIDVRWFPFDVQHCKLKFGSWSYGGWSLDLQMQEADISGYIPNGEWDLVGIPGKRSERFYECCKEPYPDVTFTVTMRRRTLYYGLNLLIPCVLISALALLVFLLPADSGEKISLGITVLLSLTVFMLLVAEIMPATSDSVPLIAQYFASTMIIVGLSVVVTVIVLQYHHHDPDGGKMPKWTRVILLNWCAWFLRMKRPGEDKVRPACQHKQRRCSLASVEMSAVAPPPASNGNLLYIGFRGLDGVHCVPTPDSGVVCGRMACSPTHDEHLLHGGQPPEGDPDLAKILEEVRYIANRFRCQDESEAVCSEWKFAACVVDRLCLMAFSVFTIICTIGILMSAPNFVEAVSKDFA

αD-PiXXA [F7-3]
inhibition of the ACh-induced response on hα3β2 nAChRs by purified peptide (human α3β2 nAChR): 6.7 ± 3.1%
effect on hα3β2 nAChRs (in words) (human α3β2 nAChR; 6.5 μM): did not significantly affect
reversibility of the effect of purified peptide on hα7 nAChR (in words) (human α7 nAChR): slowly reversible; also recorded: very slowly reversible
selectivity hα7 over hα3β2 (in words) (human α7 nAChR): selective for hα7 nAChRs
time to return to the initial activity after starting the washout, hα7 nAChR (human α7 nAChR): 21 min and ~ 21 min
pIC50 (human α7 nAChR; read-out: half-maximal inhibitory concentration (IC50) on hα7 nAChRs): 5.21
